Source: patent US7074789B2, “Kinase inhibitors” (Amgen Inc., priority 1999, dated 2006)
Where two headings read alike, the source gives them in different places.

Tests used:
Type in all cases: biochemical
PDGFRB = target: T1, PDGFRB (Homo sapiens, UniProt P09619); experiment: Kinase inhibition assay (33P transfer), PDGFRB; settings: read-out: PDGFRB-1
T1 construct: Kinases are expressed as either kinase domains or full length constructs; made in house

EGFR = target: T2, EGFR (Homo sapiens, UniProt P00533); experiment: Kinase inhibition assay (33P transfer), EGFR; settings: Table 2, kinase inhibition class; read-out: EGFR-1
T2 construct: Kinases are expressed as either kinase domains or full length constructs; made in house
In short: (§1)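 Steps: coat wells with poly(Glu,Tyr) 4:1 or poly(Arg,Ser) 3:1; add purified kinase, [33P]ATP and inhibitor; incubate; wash with 0.5% phosphoric acid; add liquid scintillant; count. IC50 corresponds to half-maximal reduction of bound 33P.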

Tek = target: T3, Tek (Homo sapiens, UniProt Q02763); experiment: Kinase inhibition assay (33P transfer), Tek; settings: read-out: Tek-1
T3 construct: Kinases are expressed as either kinase domains or full length constructs; made in house
In short: as §1

c-Met = target: T4, c-Met (Homo sapiens, UniProt P08581); experiment: Kinase inhibition assay (33P transfer), c-Met; settings: Table 2, kinase inhibition class; read-out: Met-1
T4 construct: Kinases are expressed as either kinase domains or full length constructs; made in house
T4 sequence (P08581 25-1390): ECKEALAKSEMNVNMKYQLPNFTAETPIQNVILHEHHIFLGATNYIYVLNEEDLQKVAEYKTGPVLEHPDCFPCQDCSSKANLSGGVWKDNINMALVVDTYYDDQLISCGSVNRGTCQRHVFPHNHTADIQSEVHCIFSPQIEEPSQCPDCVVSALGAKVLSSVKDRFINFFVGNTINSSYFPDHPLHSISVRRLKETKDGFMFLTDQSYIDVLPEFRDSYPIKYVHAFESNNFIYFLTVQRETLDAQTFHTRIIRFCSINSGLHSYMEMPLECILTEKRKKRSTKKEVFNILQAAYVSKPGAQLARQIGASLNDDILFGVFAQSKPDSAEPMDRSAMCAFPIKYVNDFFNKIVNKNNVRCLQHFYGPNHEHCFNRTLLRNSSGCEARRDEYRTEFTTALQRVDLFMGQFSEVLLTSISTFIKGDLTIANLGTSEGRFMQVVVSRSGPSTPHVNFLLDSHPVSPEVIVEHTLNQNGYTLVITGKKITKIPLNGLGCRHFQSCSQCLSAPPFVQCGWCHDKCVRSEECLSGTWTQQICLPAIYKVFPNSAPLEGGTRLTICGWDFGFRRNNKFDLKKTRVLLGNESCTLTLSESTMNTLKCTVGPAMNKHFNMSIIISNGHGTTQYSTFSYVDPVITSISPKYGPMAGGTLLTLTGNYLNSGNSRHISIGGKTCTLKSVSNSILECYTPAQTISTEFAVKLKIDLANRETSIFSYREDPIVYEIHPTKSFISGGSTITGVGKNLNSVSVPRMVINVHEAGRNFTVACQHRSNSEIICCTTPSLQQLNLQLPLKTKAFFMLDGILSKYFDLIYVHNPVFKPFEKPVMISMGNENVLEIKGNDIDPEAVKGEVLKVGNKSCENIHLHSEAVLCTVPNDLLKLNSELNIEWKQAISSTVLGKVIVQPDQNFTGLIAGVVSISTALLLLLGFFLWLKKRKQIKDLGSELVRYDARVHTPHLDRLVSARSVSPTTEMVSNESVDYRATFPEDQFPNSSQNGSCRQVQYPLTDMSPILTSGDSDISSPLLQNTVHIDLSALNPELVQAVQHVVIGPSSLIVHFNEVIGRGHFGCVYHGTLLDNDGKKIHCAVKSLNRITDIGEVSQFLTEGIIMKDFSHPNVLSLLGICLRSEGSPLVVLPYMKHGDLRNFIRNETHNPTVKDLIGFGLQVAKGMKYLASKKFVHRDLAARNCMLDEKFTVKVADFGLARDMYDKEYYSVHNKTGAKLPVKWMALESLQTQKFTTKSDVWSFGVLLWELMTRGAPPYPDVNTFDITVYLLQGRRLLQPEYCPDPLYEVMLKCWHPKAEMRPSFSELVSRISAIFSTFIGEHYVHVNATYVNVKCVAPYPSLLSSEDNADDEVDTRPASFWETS
In short: as §1

Zap-70 = target: T5, Zap-70 (Homo sapiens, UniProt P43403); experiment: Kinase inhibition assay (33P transfer), Zap-70; settings: read-out: Zap-1
T5 construct: Kinases are expressed as either kinase domains or full length constructs; made in house
T5 sequence (P43403 1-619): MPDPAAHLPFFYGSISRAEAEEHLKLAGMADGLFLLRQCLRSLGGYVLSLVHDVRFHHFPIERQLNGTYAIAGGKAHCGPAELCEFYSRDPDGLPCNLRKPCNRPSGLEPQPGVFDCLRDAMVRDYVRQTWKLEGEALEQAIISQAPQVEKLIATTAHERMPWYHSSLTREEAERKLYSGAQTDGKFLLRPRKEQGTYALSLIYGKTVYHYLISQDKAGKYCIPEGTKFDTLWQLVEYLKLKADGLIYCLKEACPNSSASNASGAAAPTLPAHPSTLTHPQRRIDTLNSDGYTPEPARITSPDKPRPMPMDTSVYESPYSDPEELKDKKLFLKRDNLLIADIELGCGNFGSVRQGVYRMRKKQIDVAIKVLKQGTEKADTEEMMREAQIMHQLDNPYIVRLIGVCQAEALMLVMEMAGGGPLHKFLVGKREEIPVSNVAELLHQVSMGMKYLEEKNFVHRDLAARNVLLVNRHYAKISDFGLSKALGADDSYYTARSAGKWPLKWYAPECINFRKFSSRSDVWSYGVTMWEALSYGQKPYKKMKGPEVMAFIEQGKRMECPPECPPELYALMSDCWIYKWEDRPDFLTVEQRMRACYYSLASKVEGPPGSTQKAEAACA
In short: (§2)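 Each kinase, expressed as a GST- or polyHis-tagged domain or full-length protein, phosphorylated plate-attached poly(Glu,Tyr) 4:1 or poly(Arg,Ser) 3:1 using 33P-ATP. Bound radioactivity was measured by scintillation after a 0.5% phosphoric acid wash.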

IGFR-1 [1] = target: T6, IGFR-1 (Homo sapiens, UniProt P08069); experiment: Kinase inhibition assay (33P transfer), IGFR-1; settings: Table 2, kinase inhibition class
T6 construct: Kinases are expressed as either kinase domains or full length constructs; made in house

Lck = target: T7, Lck (Homo sapiens, UniProt P06239); experiment: Kinase inhibition assay (33P transfer), Lck; settings: read-out: Lck-1
T7 construct: Kinases are expressed as either kinase domains or full length constructs; made in house
T7 sequence (P06239 whole entry, species assumed, the tested form may be a part): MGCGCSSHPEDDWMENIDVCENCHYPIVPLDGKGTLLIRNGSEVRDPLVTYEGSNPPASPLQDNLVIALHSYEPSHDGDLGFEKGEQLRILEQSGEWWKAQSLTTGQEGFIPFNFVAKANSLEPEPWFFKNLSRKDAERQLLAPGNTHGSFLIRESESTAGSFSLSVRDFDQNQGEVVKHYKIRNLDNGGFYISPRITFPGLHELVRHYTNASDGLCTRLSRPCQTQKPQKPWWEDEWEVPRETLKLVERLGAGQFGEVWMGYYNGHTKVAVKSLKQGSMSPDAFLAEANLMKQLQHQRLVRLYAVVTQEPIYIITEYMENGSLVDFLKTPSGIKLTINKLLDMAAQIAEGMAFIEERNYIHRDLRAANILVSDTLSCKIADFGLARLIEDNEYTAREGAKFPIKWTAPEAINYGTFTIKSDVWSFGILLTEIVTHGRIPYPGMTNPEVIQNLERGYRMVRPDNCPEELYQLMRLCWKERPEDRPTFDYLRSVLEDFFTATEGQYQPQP
In short: as §2

Itk = target: T8, Itk (Homo sapiens, UniProt Q08881); experiment: Kinase inhibition assay (33P transfer), Itk; settings: read-out: Itk-1
T8 construct: Kinases are expressed as either kinase domains or full length constructs; made in house
T8 sequence (Q08881 1-620): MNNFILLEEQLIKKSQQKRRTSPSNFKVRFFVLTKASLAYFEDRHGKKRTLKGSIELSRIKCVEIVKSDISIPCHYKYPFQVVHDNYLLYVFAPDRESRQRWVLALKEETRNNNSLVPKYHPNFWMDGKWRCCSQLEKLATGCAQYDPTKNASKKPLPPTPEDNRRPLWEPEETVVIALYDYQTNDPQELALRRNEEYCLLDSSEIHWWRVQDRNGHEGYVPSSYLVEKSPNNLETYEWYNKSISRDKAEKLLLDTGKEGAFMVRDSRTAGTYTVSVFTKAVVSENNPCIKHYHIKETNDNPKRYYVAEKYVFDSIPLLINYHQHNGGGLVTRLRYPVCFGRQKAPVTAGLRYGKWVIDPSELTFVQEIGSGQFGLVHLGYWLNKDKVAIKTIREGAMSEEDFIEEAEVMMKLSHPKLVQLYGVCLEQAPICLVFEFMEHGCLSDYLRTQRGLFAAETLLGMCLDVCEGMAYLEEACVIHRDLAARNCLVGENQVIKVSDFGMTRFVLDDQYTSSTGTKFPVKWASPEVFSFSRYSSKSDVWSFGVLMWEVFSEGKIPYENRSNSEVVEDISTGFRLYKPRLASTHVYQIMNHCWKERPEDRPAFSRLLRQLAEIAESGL
In short: as §1

Kdr = target: T9, Kdr (Homo sapiens, UniProt P35968); experiment: Kinase inhibition assay (33P transfer), Kdr; settings: read-out: KDR-1
T9 construct: Kinases are expressed as either kinase domains or full length constructs; made in house
T9 sequence (P35968 20-1356, species assumed): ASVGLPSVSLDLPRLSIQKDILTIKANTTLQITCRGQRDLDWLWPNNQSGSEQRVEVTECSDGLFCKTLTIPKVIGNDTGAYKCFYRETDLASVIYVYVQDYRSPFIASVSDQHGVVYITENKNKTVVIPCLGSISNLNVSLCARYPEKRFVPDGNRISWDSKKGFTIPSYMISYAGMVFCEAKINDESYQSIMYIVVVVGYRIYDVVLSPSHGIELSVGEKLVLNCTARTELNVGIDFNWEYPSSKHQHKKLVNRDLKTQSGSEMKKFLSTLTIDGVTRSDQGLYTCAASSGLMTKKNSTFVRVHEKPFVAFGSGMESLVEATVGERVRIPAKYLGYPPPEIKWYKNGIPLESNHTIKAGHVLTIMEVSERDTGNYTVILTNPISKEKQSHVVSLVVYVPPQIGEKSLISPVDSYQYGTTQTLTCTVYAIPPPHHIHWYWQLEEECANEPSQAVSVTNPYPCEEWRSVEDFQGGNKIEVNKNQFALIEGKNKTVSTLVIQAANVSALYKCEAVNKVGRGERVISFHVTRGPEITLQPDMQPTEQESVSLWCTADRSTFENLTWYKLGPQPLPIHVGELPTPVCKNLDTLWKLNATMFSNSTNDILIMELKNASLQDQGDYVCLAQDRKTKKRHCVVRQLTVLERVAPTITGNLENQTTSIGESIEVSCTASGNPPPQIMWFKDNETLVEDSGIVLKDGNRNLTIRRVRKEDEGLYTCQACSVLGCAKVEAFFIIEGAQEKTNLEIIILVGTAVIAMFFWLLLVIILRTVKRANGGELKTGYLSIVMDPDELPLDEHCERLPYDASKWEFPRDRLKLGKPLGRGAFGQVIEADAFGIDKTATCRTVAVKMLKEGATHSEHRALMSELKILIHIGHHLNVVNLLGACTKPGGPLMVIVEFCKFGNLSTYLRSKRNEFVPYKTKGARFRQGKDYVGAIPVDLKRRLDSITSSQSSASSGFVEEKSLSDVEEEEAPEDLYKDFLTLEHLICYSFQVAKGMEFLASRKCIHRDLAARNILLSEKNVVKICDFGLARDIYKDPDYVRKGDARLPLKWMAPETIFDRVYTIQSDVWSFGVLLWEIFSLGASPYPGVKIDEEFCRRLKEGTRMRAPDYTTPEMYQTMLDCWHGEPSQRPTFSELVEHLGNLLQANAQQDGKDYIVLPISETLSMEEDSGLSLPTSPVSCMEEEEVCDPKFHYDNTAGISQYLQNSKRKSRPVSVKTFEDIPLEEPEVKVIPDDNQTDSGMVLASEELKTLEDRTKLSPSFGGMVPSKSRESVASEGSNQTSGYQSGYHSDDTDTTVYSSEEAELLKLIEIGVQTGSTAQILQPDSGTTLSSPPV
In short: as §2

AKT = target: T10, AKT (Homo sapiens, UniProt Q9Y243); experiment: Kinase inhibition assay (33P transfer), AKT; settings: Table 2, kinase inhibition class; read-out: AKT3-1
T10 construct: Kinases are expressed as either kinase domains or full length constructs; made in house
T10 sequence (Q9Y243 whole entry, the tested form may be a part): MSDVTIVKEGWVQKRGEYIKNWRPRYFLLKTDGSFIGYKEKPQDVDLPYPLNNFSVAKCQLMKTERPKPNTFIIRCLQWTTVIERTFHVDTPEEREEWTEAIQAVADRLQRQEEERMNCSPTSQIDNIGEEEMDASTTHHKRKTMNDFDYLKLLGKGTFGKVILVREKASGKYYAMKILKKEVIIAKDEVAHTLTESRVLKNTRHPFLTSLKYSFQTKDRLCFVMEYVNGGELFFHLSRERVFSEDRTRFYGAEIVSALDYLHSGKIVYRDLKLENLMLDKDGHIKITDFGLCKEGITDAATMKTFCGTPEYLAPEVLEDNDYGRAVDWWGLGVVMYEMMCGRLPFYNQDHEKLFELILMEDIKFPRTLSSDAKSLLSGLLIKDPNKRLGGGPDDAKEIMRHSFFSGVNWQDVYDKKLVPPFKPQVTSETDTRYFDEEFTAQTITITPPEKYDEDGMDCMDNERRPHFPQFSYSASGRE
In short: as §2

Flt-1 = target: T11, Flt-1 (Homo sapiens, UniProt P17948); experiment: Kinase inhibition assay (33P transfer), Flt-1
T11 construct: Kinases are expressed as either kinase domains or full length constructs; made in house
Text: The inhibitor compounds described herein are screened in the following manner. Kinases suitable for use in the following protocol to determine kinase activity of the compounds described herein include, -but are not limited to: Lck, Lyn, Src, Fyn, Syk, Zap-70, Itk, Tec, Btk, EGFR, ErbB2, Kdr, Flt-1, Flt-3, Tek, c-Met, InsR, and AKT.
Kinases are expressed as either kinase domains or full length constructs fused to glutathione S-transferase (GST) or polyHistidine tagged fusion proteins in either E. colior Baculovirus-High Five expression systems. They are purified to near homogeneity by affinity chromatography essentially as previously described (Lehr et al., 1996; Gish et al., 1995). In some instances, kinases are co-expressed or mixed with purified or partially purified regulatory polypeptides prior to measurement of activity.
Kinase activity and inhibition are measured essentially by established protocols (Braunwalder et al., 1996). Briefly, The transfer of ^33PO4 from ATP to the synthetic substrates poly(Glu, Tyr) 4:1 or poly(Arg, Ser) 3:1 attached to the bioactive surface of microtiter plates serves as the basis to evaluate enzyme activity. After an incubation period, the amount of phosphate transferred is measured by first washing the plate with 0.5% phosphoric acid, adding liquid scintillant, and then counting in a liquid scintillation detector. The IC50 is determined by the concentration of compound that causes a 50% reduction in the amount of […] incorporated onto the substrate bound to the plate.

FGFR1 = target: T12, FGFR1 (Homo sapiens, UniProt P11362); experiment: Kinase inhibition assay (33P transfer), FGFR1; settings: read-out: FGFR1-1
T12 construct: Kinases are expressed as either kinase domains or full length constructs; made in house

IGFR-1 [2] = target: T6, IGFR-1; experiment: Kinase inhibition assay, IGFR-1 (Table 2); settings: Table 2, kinase inhibition class
ErbB2 = target: T13, ErbB2 (Homo sapiens, UniProt P04626); experiment: Kinase inhibition assay (33P transfer), ErbB2; settings: read-out: ErbB2-2
T13 construct: Kinases are expressed as either kinase domains or full length constructs; made in house
T13 sequence (P04626 23-1255, species assumed): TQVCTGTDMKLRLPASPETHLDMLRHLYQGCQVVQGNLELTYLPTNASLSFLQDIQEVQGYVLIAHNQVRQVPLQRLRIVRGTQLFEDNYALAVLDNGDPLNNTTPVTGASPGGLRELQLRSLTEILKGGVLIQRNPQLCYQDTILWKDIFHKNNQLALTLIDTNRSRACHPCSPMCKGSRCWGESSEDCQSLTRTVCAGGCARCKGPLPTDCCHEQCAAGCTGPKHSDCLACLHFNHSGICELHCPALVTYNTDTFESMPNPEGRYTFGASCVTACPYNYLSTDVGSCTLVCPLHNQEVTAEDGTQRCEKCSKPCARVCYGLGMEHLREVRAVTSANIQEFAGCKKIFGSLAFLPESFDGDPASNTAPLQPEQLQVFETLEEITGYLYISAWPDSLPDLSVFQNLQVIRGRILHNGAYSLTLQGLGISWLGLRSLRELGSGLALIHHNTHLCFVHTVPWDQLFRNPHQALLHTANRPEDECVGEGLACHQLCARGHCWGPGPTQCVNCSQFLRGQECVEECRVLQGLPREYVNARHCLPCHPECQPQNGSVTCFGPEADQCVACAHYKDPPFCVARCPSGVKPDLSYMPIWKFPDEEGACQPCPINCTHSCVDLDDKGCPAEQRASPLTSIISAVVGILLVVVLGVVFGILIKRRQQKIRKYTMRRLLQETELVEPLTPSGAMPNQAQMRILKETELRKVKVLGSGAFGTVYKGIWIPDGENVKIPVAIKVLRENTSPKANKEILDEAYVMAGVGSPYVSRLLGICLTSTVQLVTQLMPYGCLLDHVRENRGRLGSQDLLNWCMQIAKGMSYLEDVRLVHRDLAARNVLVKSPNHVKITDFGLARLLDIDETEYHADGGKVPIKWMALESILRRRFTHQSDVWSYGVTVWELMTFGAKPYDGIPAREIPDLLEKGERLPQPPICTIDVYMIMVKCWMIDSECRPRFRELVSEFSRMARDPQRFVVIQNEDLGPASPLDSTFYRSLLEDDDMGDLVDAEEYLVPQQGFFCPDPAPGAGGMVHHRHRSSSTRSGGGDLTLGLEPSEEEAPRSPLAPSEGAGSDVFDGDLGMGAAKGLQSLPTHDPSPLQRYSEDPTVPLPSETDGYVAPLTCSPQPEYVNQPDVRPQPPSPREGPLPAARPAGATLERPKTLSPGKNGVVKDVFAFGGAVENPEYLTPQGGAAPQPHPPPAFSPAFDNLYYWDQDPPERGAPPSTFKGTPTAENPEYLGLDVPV
In short: as §1

Row | IC50 (PDGFRB) | IC50 (EGFR) | IC50 (Tek) | IC50 (c-Met) | IC50 (Zap-70; Table 3) | IC50 (IGFR-1 [1]) | IC50 (Lck; Table 3) | IC50 (Itk; Table 3) | IC50 (Kdr; Table 3) | IC50 (AKT) | IC50 (Flt-1) | IC50 (FGFR1) | IC50 (IGFR-1 [2]) | IC50 (ErbB2) | IC50 (Zap-70) | IC50 (Lck) | IC50 (Itk) | IC50 (Kdr) | SMILES
1 | 1.04 to 6.26 µM | > 11.7 µM | > 11.7 µM | > 11.7 µM | > 11.7 µM | > 11.7 µM | > 11.7 µM | > 11.7 µM | 1.04 to 6.26 µM | > 11.7 µM | – | – | – | – | – | – | – | – | COc1ccc(Nc2ncnc(Nc3ccc(OC)c(OC)c3)n2)cc1OC [Compound 63]
2 | > 13.7 µM | > 13.7 µM | – | 10.7 to 13.7 µM | > 13.7 µM | – | 7.33 to 10.7 µM | > 13.7 µM | < 1.22 µM | – | > 13.7 µM | > 13.7 µM | – | – | – | – | – | – | COc1cc(Nc2ncnc(-n3cccc3)n2)cc(OC)c1OC [Compound 182]
3 | 1.2 to 7.2 µM | 7.2 to 10.5 µM | 1.2 to 7.2 µM | 7.2 to 10.5 µM | – | – | – | – | – | > 13.5 µM | – | – | < 1.2 µM | 1.2 to 7.2 µM | > 13.5 µM | 1.2 to 7.2 µM | 1.2 to 7.2 µM | < 1.2 µM | COc1cccc(Nc2ncnc(-n3c(N)nc4ccccc43)n2)c1 [Compound 654]
4 | > 11.2 µM | 0.991 to 5.95 µM | > 11.2 µM | < 0.991 µM | – | – | – | – | – | > 11.2 µM | – | – | < 0.991 µM | 0.991 to 5.95 µM | > 11.2 µM | 0.991 to 5.95 µM | 5.95 to 8.68 µM | 0.991 to 5.95 µM | COc1cc(C)c(Nc2ncnc(Nc3cc(-c4ccccc4)n[nH]3)n2)cc1OC [Compound 978]
5 | > 8.6 µM | > 8.6 µM | > 8.6 µM | 6.69 to 8.6 µM | – | – | – | – | – | > 8.6 µM | – | – | 6.69 to 8.6 µM | 4.58 to 6.69 µM | > 8.6 µM | 6.69 to 8.6 µM | 4.58 to 6.69 µM | 6.69 to 8.6 µM | COc1cc(Nc2ncnc(-n3c(NCc4nc5ccccc5[nH]4)nc4ccccc43)n2)cc(OC)c1OC [Compound 954]
6 | > 9.42 µM | 0.838 to 5.03 µM | > 9.42 µM | < 0.838 µM | – | – | – | – | – | > 9.42 µM | – | – | < 0.838 µM | 7.33 to 9.42 µM | > 9.42 µM | < 0.838 µM | 7.33 to 9.42 µM | > 9.42 µM | COC(=O)c1ccc(-c2cc(Nc3ncnc(Nc4cc(OC)c(OC)c(OC)c4)n3)[nH]n2)cc1 [Compound 523]
7 | 1.03 to 6.2 µM | < 1.03 µM | 1.03 to 6.2 µM | < 1.03 µM | – | – | – | – | – | > 11.6 µM | – | – | < 1.03 µM | 1.03 to 6.2 µM | > 11.6 µM | 1.03 to 6.2 µM | 1.03 to 6.2 µM | < 1.03 µM | O=C(O)Cc1cccc(Nc2ncnc(Nc3cc(-c4ccccc4)n[nH]3)n2)c1 [Compound 981]
8 | > 10.7 µM | > 10.7 µM | > 10.7 µM | > 10.7 µM | – | – | – | – | – | > 10.7 µM | – | – | 0.954 to 5.72 µM | > 10.7 µM | > 10.7 µM | 0.954 to 5.72 µM | 0.954 to 5.72 µM | > 10.7 µM | COc1cc(Nc2ncnc(-n3nc(-c4ccccc4)cc3N)n2)cc(OC)c1OC [Compound 520]
9 | 1.18 to 7.11 µM | 1.18 to 7.11 µM | 1.18 to 7.11 µM | 1.18 to 7.11 µM | – | – | – | – | – | 1.18 to 7.11 µM | – | – | 1.18 to 7.11 µM | 1.18 to 7.11 µM | 7.11 to 10.4 µM | 1.18 to 7.11 µM | 1.18 to 7.11 µM | 1.18 to 7.11 µM | Nc1nc2ccccc2n1-c1ncnc(Nc2cccc(Cl)c2)n1 [Compound 474]
10 | 1.06 to 6.36 µM | < 1.06 µM | 6.36 to 9.27 µM | < 1.06 µM | – | – | – | – | – | 9.27 to 11.9 µM | – | – | 1.06 to 6.36 µM | > 11.9 µM | 6.36 to 9.27 µM | 6.36 to 9.27 µM | 1.06 to 6.36 µM | < 1.06 µM | O=C(O)Cc1cccc(Nc2ncnc(Nc3cc(-c4ccco4)n[nH]3)n2)c1 [Compound 983]
